# Measurements from patent publication US20100041597A1, “PEPTIDES TARGETED TO PROTEIN KINASE C ISOFORMS AND USES THEREOF” (priority 2005, published 2010).
# Tests used:
# PKC-β = experiment: In vitro competition with anti-PKC-β antibody, Protocol A, IMR-32 cells; type: binding, human; conditions: for Band Intensity / Inhibition (%) / Relative Intensity (%): PKC-β, IMR-32, Table 6
# Description: Cell lysates from either IMR-32 (human neuroblastoma) cells or C6Cx43 cells (rat glioma transfected cells overexpressing connexin 43) were obtained using standard protocols and the proteins of the lysate were separated by SDS PAGE electrophoresis and electrotransferred onto a nitrocellulose membrane. The membrane was incubated for 30 minutes in blocking buffer (TBST) containing the test peptide at either 5× or 20× the concentrations of the primary antibody. A primary polyclonal antibody specific for PKC-α (Santa Cruz Biotechnology, Inc., CA) was then added (15 μg/ml) and the membrane incubated for a further 45 minutes. Finally, the primary antibody was detected with a secondary antibody conjugated to alkaline phosphatase using standard procedures. The intensity of the band corresponding to PKC-α was assessed by scanning and densitometry using the Gel-Pro software (Media Cybernetics) to obtain relative band intensities (average of 3 replicas). Control assays were conducted as described above except that blocking buffer without peptide was used.
# Peptides PRE 1, PRE 2 and PRE 3 (see Table 3) were tested for their ability to interfere with the binding of a PKC-β-specific polyclonal antibody (Santa Cruz Biotechnology, Inc.) to PKC-β using the general protocol described in Example 1. […] It is worth noting in this regard that PKC-α and PKC-β belong to the same sub-group of PKCs (cPKCs).
# PKC-ε = experiment: In vitro competition with anti-PKC-ε antibody, Protocol B, IMR-32 cells; type: binding, human
# Description: (§1) The ability of the peptides PRE 2 and PRE 3 (see Table 3) to interfere with the binding of a PKC-α-specific polyclonal antibody (Santa Cruz Biotechnology, Inc.) to PKC-α was determined using a modified version of the protocol outlined above in which the test peptide was added directly to the cell extract prior to electrophoresis at a concentration of either 5× or 15× the concentration of the protein applied to each well of the gel for the Western blots (20 μg).
# Peptides PRE 2, PRE 3 and PRE 4 (see Table 3) were tested for their ability to interfere with the binding of isoform-specific polyclonal antibodies (Santa Cruz Biotechnology, Inc.) to PKC-ε using the general protocol described in Example 3. Two bands, representing alternate splicing variants of PKC-ε, were identified on the Western blot using this anti-PKC-ε antibody.
# PKC-βI = PKC-βI (Homo sapiens, UniProt P05771); experiment: In vitro competition with anti-PKC-βI antibody, Protocol B, IMR-32 cells; type: binding; design: PRE 3 and PRE 4 in IMR-32 Neuroblastoma Cells: Protocol B; endogenous in cells; host or cells: IMR-32; conditions: PKC-βI; for Band Intensity: control band intensity 170.5, Table 9
# Chain of PKC-βI (P05771 whole entry): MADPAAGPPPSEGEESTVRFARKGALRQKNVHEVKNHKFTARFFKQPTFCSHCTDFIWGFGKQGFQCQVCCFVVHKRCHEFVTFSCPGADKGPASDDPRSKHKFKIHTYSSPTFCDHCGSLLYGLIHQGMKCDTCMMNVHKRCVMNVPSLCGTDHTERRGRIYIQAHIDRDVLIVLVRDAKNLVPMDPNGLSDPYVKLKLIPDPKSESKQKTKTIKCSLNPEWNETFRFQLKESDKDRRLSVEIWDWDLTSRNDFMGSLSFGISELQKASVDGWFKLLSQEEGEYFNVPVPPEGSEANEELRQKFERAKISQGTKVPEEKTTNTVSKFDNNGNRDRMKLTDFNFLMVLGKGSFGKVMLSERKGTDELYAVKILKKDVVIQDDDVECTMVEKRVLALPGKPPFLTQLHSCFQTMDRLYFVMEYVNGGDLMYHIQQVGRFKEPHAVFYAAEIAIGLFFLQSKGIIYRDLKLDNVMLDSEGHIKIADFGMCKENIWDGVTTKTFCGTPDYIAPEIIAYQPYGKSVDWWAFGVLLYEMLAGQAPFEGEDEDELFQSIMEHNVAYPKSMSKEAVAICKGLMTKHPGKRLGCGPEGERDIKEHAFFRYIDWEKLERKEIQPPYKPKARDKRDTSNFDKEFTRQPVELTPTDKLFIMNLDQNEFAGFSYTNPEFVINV
# Description: as §1
# (§2) Peptides PRE 3 and PRE 4 (see Table 3) were tested for their ability to interfere with the binding of isoform-specific polyclonal antibodies (Santa Cruz Biotechnology, Inc.) to PKC-α, PKC-βI or PKC-βII using the general protocol described in Example 3.
# PKC-βII = PKC-βII (Homo sapiens, UniProt P05771); experiment: In vitro competition with anti-PKC-βII antibody, Protocol B, IMR-32 cells; type: binding; design: PRE 3 and PRE 4 in IMR-32 Neuroblastoma Cells: Protocol B; endogenous in cells; host or cells: IMR-32; conditions: PKC-βII; for Band Intensity: control band intensity 98.6, Table 9
# Chain of PKC-βII (P05771 1-673 isoform P05771-2): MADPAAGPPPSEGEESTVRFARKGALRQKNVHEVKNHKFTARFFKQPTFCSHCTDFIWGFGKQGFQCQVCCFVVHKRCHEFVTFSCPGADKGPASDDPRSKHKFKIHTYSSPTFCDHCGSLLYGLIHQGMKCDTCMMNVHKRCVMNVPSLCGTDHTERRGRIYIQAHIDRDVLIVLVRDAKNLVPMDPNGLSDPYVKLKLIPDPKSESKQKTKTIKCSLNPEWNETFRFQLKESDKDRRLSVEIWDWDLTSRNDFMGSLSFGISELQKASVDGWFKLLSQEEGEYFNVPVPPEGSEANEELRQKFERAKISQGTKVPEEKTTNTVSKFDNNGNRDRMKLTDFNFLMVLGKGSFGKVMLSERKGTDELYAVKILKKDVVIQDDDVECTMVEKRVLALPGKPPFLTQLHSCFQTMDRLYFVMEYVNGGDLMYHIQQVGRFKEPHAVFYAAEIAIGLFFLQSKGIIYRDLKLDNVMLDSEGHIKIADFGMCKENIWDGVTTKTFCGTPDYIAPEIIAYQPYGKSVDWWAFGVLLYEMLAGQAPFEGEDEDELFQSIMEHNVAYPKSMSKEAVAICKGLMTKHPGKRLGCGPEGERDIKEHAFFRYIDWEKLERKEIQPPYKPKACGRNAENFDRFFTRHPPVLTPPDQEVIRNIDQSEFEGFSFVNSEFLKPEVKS
# Description: as §2
# PKC-α [1] = biological target: T1, PKC-α (Homo sapiens, UniProt P17252); experiment: In vitro competition with anti-PKC-α antibody, Protocol B (peptide added to cell extract before electrophoresis), IMR-32 cells; type: binding; design: subcellular localisation of endogenous PKC-α in IMR-32 cells; endogenous in cells; host or cells: IMR-32; conditions: for Inhibition (%) / Relative Intensity (%): Table 9
# Description: as §2
# PKC-α [2] = biological target: T1, PKC-α; experiment: Subcellular localisation of PKC-α in IMR-32 cells; type: cell-based; design: subcellular localisation of endogenous PKC-α in IMR-32 cells; endogenous in cells; host or cells: IMR-32; conditions: 10 mg/ml, pinocytic endocytosis
# Description: Peptides PRE 3 or PRE 4 (10 mg/ml) were introduced into human neuroblastoma cells (IMR-32) by pinocytic endocytosis. The cells were fixed and stained with rabbit PKC-A primary antibody and anti-rabbit Alexa-488 or Alexa-800 secondary antibody.
# In most of the cells PKC-α can be seen to be located in the cytoplasm, around the nucleus and at the plasma membrane (where it becomes activated).
# [3] = 100 μg, Table 9, read-out: Relative Intensity (%)
# [4] = 200 μg, Table 9, read-out: Relative Intensity (%)
# [5] = 300 μg, Table 9, read-out: Relative Intensity (%)
substance,measurement,setting,value
Ac-AKGIQEVKGGDAQNLIGISI-NH2 [PRE 3],effect on antibody binding to PKC-β,PKC-β,did not show an effect on antibody binding to PKC-β
same,Band Intensity,PKC-β; 75 μg,1.900
same,Inhibition (%),PKC-β; 75 μg,0.0%
same,Relative Intensity (%),PKC-β; 75 μg,102.4%
same,Band Intensity,PKC-β; 300 μg,1.900
same,Inhibition (%),PKC-β; 300 μg,0.0%
same,Relative Intensity (%),PKC-β; 300 μg,102.4%
same,Band Intensity,PKC-β; 600 μg,1.847
same,Inhibition (%),PKC-β; 600 μg,0.0%
same,Relative Intensity (%),PKC-β; 600 μg,99.6%
same,Band Intensity,"PKC-ε; 20 μg, PKC-ε Band 1, Table 10",5.12
same,Inhibition (%),"PKC-ε; 20 μg, PKC-ε Band 1, Table 10",99.0%
same,Relative Intensity (%),"PKC-ε; 20 μg, PKC-ε Band 1, Table 10",0.12%
same,Band Intensity,"PKC-ε; 20 μg, PKC-ε Band 2, Table 10",0.0
same,Inhibition (%),"PKC-ε; 20 μg, PKC-ε Band 2, Table 10",100.0%
same,Relative Intensity (%),"PKC-ε; 20 μg, PKC-ε Band 2, Table 10",0.0%
same,Band Intensity,"PKC-ε; 50 μg, PKC-ε Band 1, Table 10",0.0
same,Inhibition (%),"PKC-ε; 50 μg, PKC-ε Band 1, Table 10",100.0%
same,Relative Intensity (%),"PKC-ε; 50 μg, PKC-ε Band 1, Table 10",0.0%
same,Band Intensity,"PKC-ε; 50 μg, PKC-ε Band 2, Table 10",0.0
same,Inhibition (%),"PKC-ε; 50 μg, PKC-ε Band 2, Table 10",100.0%
same,Relative Intensity (%),"PKC-ε; 50 μg, PKC-ε Band 2, Table 10",0.0%
same,Band Intensity,"PKC-ε; 100 μg, PKC-ε Band 1, Table 10",0.0
same,Inhibition (%),"PKC-ε; 100 μg, PKC-ε Band 1, Table 10",100.0%
same,Relative Intensity (%),"PKC-ε; 100 μg, PKC-ε Band 1, Table 10",0.0%
same,Band Intensity,"PKC-ε; 100 μg, PKC-ε Band 2, Table 10",0.0
same,Inhibition (%),"PKC-ε; 100 μg, PKC-ε Band 2, Table 10",100.0%
same,Relative Intensity (%),"PKC-ε; 100 μg, PKC-ε Band 2, Table 10",0.0%
same,inhibition at 0.1 mg,"PKC-βI; 100 μg, Table 9",100%
same,remaining activity at 0.1 mg,PKC-βI; [3],0%
same,Band Intensity,PKC-βI; 100 μg,0.0
same,inhibition at 0.2 mg,"PKC-βI; 200 μg, Table 9",100%
same,remaining activity at 0.2 mg,PKC-βI; [4],0%
same,Band Intensity,PKC-βI; 200 μg,0.0
same,inhibition at 0.3 mg,"PKC-βI; 300 μg, Table 9",100%
same,remaining activity at 0.3 mg,PKC-βI; [5],0%
same,Band Intensity,PKC-βI; 300 μg,0.0
same,inhibition at 0.1 mg,"PKC-βII; 100 μg, Table 9",100%
same,remaining activity at 0.1 mg,PKC-βII; [3],0%
same,Band Intensity,PKC-βII; 100 μg,0.0
same,inhibition at 0.2 mg,"PKC-βII; 200 μg, Table 9",100%
same,remaining activity at 0.2 mg,PKC-βII; [4],0%
same,Band Intensity,PKC-βII; 200 μg,0.0
same,inhibition at 0.3 mg,"PKC-βII; 300 μg, Table 9",100%
same,remaining activity at 0.3 mg,PKC-βII; [5],0%
same,Band Intensity,PKC-βII; 300 μg,0.0
same,effect on antibody binding to PKC-α,PKC-α [1],effectively interfered with PKC-α antibody binding to PKC-α
same,Band Intensity,"PKC-α [1]; 100 μg, PKC-α, IMR-32, Table 7",0.0
same,inhibition at 0.1 mg,"PKC-α [1]; 100 μg, PKC-α, IMR-32, Table 7",100%
same,remaining activity at 0.1 mg,"PKC-α [1]; 100 μg, PKC-α, IMR-32, Table 7, read-out: Relative Intensity (%)",0%
same,Inhibition (%),"PKC-α [1]; 100 μg, PKC-α",100.0%
same,Relative Intensity (%),"PKC-α [1]; 100 μg, PKC-α",0.0%
same,Band Intensity,"PKC-α [1]; 100 μg, PKC-α, control band intensity 302.5, Table 9",0.0
same,Band Intensity,"PKC-α [1]; 200 μg, PKC-α, IMR-32, Table 7",0.0
same,inhibition at 0.2 mg,"PKC-α [1]; 200 μg, PKC-α, IMR-32, Table 7",100%
same,remaining activity at 0.2 mg,"PKC-α [1]; 200 μg, PKC-α, IMR-32, Table 7, read-out: Relative Intensity (%)",0%
same,Inhibition (%),"PKC-α [1]; 200 μg, PKC-α",100.0%
same,Relative Intensity (%),"PKC-α [1]; 200 μg, PKC-α",0.0%
same,Band Intensity,"PKC-α [1]; 200 μg, PKC-α, control band intensity 302.5, Table 9",0.0
same,Band Intensity,"PKC-α [1]; 300 μg, PKC-α, IMR-32, Table 7",0.0
same,inhibition at 0.3 mg,"PKC-α [1]; 300 μg, PKC-α, IMR-32, Table 7",100%
same,remaining activity at 0.3 mg,"PKC-α [1]; 300 μg, PKC-α, IMR-32, Table 7, read-out: Relative Intensity (%)",0%
same,Inhibition (%),"PKC-α [1]; 300 μg, PKC-α",100.0%
same,Relative Intensity (%),"PKC-α [1]; 300 μg, PKC-α",0.0%
same,Band Intensity,"PKC-α [1]; 300 μg, PKC-α, control band intensity 302.5, Table 9",0.0
same,effect on subcellular localisation of PKC-α,PKC-α [2],does not alter the subcellular localisation of PKC-α
